Experimental data as given in ChEMBL document CHEMBL1157539, “Thousands of chemical starting points for antimalarial lead identification” (Nature, 2010).

System: Plasmodium falciparum
Experiment: GSK_TCMDC: Inhibition of Plasmodium falciparum 3D7 in whole erythrocytes, using parasite LDH activity as an index of growth.
Format: functional, organism-based
Conditions: Plasmodium falciparum, 3D7

Compound | XC50 [nM]
CCN(CC)CCN(Cc1ccc(-c2ccc(C(F)(F)F)cc2)cc1)C(=O)Cn1c(CCc2cc(F)c(F)c(F)c2)nc(=O)c2ccccc21 | 827
CC(C)N1CCC(N(Cc2ccc(-c3ccc(C(F)(F)F)cc3)cc2)C(=O)Cn2c(CCc3cccc(F)c3F)nc(=O)c3cccnc32)CC1 | 642
CCN(CC)CCN(Cc1ccc(-c2ccc(C(F)(F)F)cc2)cc1)C(=O)Cn1c(CCc2ccc(F)c(F)c2F)nc(=O)c2ccc(F)cc21 | 736
OC(CNCc1ccccc1Oc1ccccc1)c1cc(Br)cs1 (stereo not drawn) | 1110
CC(C)Nc1ccc(Nc2ccnc3cc4ccccc4cc23)cc1 | 142
O=C(Nc1cc(Cl)ccc1O)c1cnn2c(C(F)(F)F)cc(-c3cccs3)nc12 | 859
CO/C(=C\C=C\c1cc2cc(Cl)c(Cl)cc2[nH]1)C(=O)NC1CC(C)N(C)C(C)C1 (stereo not drawn) | 902
CC(=O)NCCNCc1cccc(C(=O)NCc2cccc(C(F)(F)F)c2)c1 | 1080
COc1ccc(CN2CCCN(Cc3cccc(NC(=O)c4ccc(Cl)c(Cl)c4)c3)CC2)cc1 | 973
CCc1ccc2nc(-c3ccc(F)cc3)nc(SCC(=O)Nc3sc(C)c(C)c3C#N)c2c1 | 643
CN(C)CCOc1cc(NC(=O)Nc2ccc(-c3ccccc3)cc2)ccc1I | 595
CN(C)CC(=O)NCC(NCCCNc1cc(=O)c2ccccc2[nH]1)c1cc(Br)cc(Br)c1 (stereo not drawn) | 1050
CC(C)CN1CCC(N(C)c2cc(NC(=O)c3cccc(F)c3)ccn2)CC1 | 848
Cc1ccc(-c2ccc3c(c2)C=C(C(=O)NCC2CCN(CC4CCN(C(=O)/C=C/c5ccc(Cl)c(Cl)c5)CC4)CC2)CCC3)cc1 | 777
COc1ccc(NCCCNc2ccnc3ccccc23)cc1 | 966
CCCCCc1cc(OC(C)=O)c2c(c1)OC(C)(C)C=C2C1=CCN(Cc2ccccc2)CC1 | 926
c1ccn2c(Sc3ncnc4sccc34)ncc2c1 | 663
OC(CNCc1cccc(Oc2ccc(Cl)cc2)c1)c1cccc(C(F)(F)F)c1 (stereo not drawn) | 971
Cc1ccc(-c2nc3cc(C(=O)NC4CCC(N5CCCc6ccc(C#N)cc6C5)CC4)ccc3[nH]2)cc1 (stereo not drawn) | 1360
Clc1ccc(CCNCCCCCCNCCc2ccc3c(c2)OCO3)cc1 | 1730
N#CC(CC(=O)c1ccc(Cl)cc1)c1cccc(F)c1 (stereo not drawn) | 854
COc1cc(Nc2nccc(N3CCC(NC(=O)Nc4cccc(C(C)=O)c4)C3)n2)cc(OC)c1OC (stereo not drawn) | 973
Nc1ncc(-c2ccc3ncccc3c2)c(N)n1 | 918
Cc1ccc(/C=C/C(=O)N2CCC(CCN3CCC(c4c[nH]c5ccccc45)CC3)CC2)cc1C | 926
O=C(Nc1cccc(-c2nn3ccccc3c2-c2ccnc(Nc3ccc(NCCCN4CCOCC4)c(F)c3)n2)c1)c1c(F)cccc1F | 259

Compound | XC50 [nM]
Cc1cc(C(=O)CN2C(=O)NC(C)(c3cccc4ccccc34)C2=O)c(C)n1Cc1ccco1 (stereo not drawn) | 626
N=C1C=C(N)C(=O)c2ccccc21 | 1050
Cc1cccc(C(=O)Nc2ccnc(N3CCC(N(C)Cc4cccc(O)c4)CC3)c2)c1 | 920
Cc1cc(C(=O)CN2C(=O)NC(C)(c3ccc4ccccc4c3)C2=O)c(C)n1Cc1ccco1 (stereo not drawn) | 661
COc1ccc2ncc(F)c(CCN3CCC(NCc4cc5c(cn4)OCCS5)CC3)c2c1 | 776
COc1ccc2nc3ccccc3c(NCCN3CCN(C)CC3)c2c1 | 1290
CN(C)CCCNCc1ccc(-c2ccc(F)c(Cl)c2)o1 | 802
CSc1c(CNCCCNc2cc(=O)c3ccccc3[nH]2)[nH]c2ccccc12 | 1120
CCCCCCCCOc1c(OCC)cc(Cc2cnc(N)nc2N)cc1OCC | 1530
CCOc1ccc(-c2nc(NC(=O)Cc3cccc(OC)c3)sc2C)cc1 | 730
Cc1cc(N[C@@H](Cc2ccccc2)C(=O)NCCOc2ccccc2)nc(NCCc2ccc(F)cc2)n1 | 603
Cc1sc(CNCCCNc2cc(=O)c3ccccc3[nH]2)c(I)c1C | 849
N=C(N)Nc1nc(-c2cccc(NC(=O)C(F)(F)F)c2)cs1 | 1050
Cn1c(N)cc(-c2ccc(Br)cc2)c2c(=O)nc(N)nc1-2 | 1130
CC1CNC(c2ccc(NC(=O)c3ccc(C(=O)Nc4ccc(C5=NC(C)CN5)cc4)cc3)cc2)=N1 (stereo not drawn) | 33.6
CN1CCN(c2ccc3nccc(CCN4CCC(NCc5ccc6c(n5)NC(=O)CO6)CC4)c3n2)CC1 | 824
Cc1nnsc1C(=O)Nc1cccc(-c2ccc(-c3nc4cc(C(F)(F)F)ccc4[nH]3)cc2)c1 | 314
Cc1ccc(CN2CCCN(Cc3cccc(NC(=O)c4cc5ccccc5s4)c3)CC2)cc1C | 735
COc1cc(F)c2ncc(Cl)c(CCN3CCC(NCc4ccc5c(n4)NC(=O)CO5)CC3)c2c1 | 504
CCCCCOc1ccc(C=NNc2nc(O)cc(-c3ccccc3)n2)cc1 | 887
Cc1nc(-c2cccc(Nc3nccc(NCC(O)c4ccccc4)n3)c2)cs1 (stereo not drawn) | 793
CCc1c[nH]c2c(N3CCCS3(=O)=O)cc(C(=O)N[C@@H](Cc3ccccc3)[C@H](O)CNC(C)(C)CCCC(C)C)cc12 | 672
c1ccc2c(NCCCCCCCCCNc3ccnc4ccccc34)ccnc2c1 | 115
Cc1nn(CCOC(=O)NC(NCC2COc3ccccc3O2)C(Cl)(Cl)Cl)cc1[N+](=O)[O-] (stereo not drawn) | 917
COc1ccc2nccc([C@@H](O)CN3CCC(NCc4cnc5c(c4)NC(=O)CS5)C(F)C3)c2c1 (stereo partly drawn) | 769

Compound | XC50 [nM]
CN(C)CCN(Cc1ccccc1-c1ccc(CNCCc2ccccc2)cc1)C(=O)NC1CCCCC1 | 906
Oc1ccc(CCNc2nc(NCc3ccccc3-c3ccc(C(F)(F)F)cc3)nc(N3CCNCC3)n2)cc1 | 866
COc1ccc2nccc([C@H](O)CN3CCC(NCc4nc5cccc(F)c5[nH]4)CC3)c2c1 | 705
CC1CN(Cc2ccc(C#N)cc2)CCN1c1ccc(NC(=O)c2cccs2)cc1 (stereo not drawn) | 809
O=C(Nc1cccc(C(F)(F)F)c1)NC1CCN(c2ccnc3ccccc23)C1 (stereo not drawn) | 289
c1cncc(-c2cc(N3CCCCC3)nc(-c3ccncc3)n2)c1 | 767
CC(=O)N(C)c1ccc(C(=O)Nc2cccc(-c3cccc(-c4nc5cc(C(F)(F)F)ccc5[nH]4)c3)c2)cc1 | 314
FC(F)(F)c1cccc(Nc2nc3nonc3nc2NC2C3CC4CC(C3)CC2C4)c1 (stereo not drawn) | 661
CCc1cn2c3c(cc(C(=O)N[C@@H](Cc4cccc(F)c4)[C@H](O)CNC4CCCCC4)cc13)N(C)S(=O)(=O)CC2 | 29.7
c1cc(Cc2ccc(Nc3c4ccccc4nc4ccccc34)cc2)cc(Nc2c3ccccc3nc3ccccc23)c1 | 143
CCc1ccc(N2C(N)=NC(N)=NC2(C)C)cc1 | 8.82
O=C(Nc1cccc(-c2ccc(-c3nc4ccccc4[nH]3)cc2)c1)Nc1ccc2c(c1)OCO2 | 671
COc1ccc(CCCc2nc(N)nc(N)c2-c2ccc(Cl)cc2)cc1 | 44.2
Cn1cc(CN2CCC(CCOC(c3ccccc3)c3ccccc3)CC2)cn1 | 259
Nc1ccc(-c2ccc3ccnc(N)c3c2)cc1 | 682
O=[N+]([O-])c1cccc(CNCC2CCC(CNCc3cccc([N+](=O)[O-])c3)CC2)c1 (stereo not drawn) | 138
CCN(CC)CCCNC(=O)/C(=C/C=C/c1cc2cc(Cl)c(Cl)cc2[nH]1)OC | 1160
c1cncc(CN2CCN(Cc3ccc(-c4ccc(-c5nc6ccccc6[nH]5)s4)cc3)CC2)c1 | 938
CCNC(=O)Nc1cccc(-c2cccc(-c3nc4cccc(C)c4[nH]3)c2)c1 | 1040
Cc1cccn2c(=O)c3cc(C(=O)NCCN4CCOCC4)c(=N)n(CCc4ccccc4)c3nc12 | 468
Cc1ccccc1C1CCN(c2ccc(C(=O)NC3CC3)cn2)CC1 | 846
O=C(Nc1cccc(N2CCC(NCCCn3ccnc3)CC2)c1)c1cccc(C(F)(F)F)c1 | 1110
OCCN1CCN(C2Cc3ccc(F)cc3Sc3ccc(Cl)cc32)CC1 (stereo not drawn) | 876
COc1ccc(CNCCCCCCNCCc2ccc(Cl)cc2)cc1OC | 1390
C[C@@H](CC1CCCCC1)NCc1cccc(NS(=O)(=O)c2ccc(O)c(-c3ccno3)c2)c1 | 376

Compound | XC50 [nM]
CCN(CC)CCN(Cc1ccc(-c2ccc(C(F)(F)F)cc2)cc1)C(=O)c1ccc(-c2ccc(NC(=O)OC)cc2C)cc1 | 929
Cc1cc(F)ccc1-c1nc(N(C)CCN(C)C(=O)N(C)c2ccccc2)nc2c1ccc(=O)n2-c1c(F)cccc1F | 1240
c1ccc(CN2CCc3cc4nccc(N5CCNCC5)c4cc32)cc1 | 400
Cc1cc(C)cc(N2C(N)=NC(N)=NC2(C)C)c1 | 42
COc1ccc(CN2CCCN(Cc3cccc(C(=O)Nc4ccc(C(C)(C)C)cc4)c3)CC2)cc1 | 891
N#Cc1ccc(N2C[C@@H](OCc3ccccc3)C[C@H]2C(=O)NCCC(c2ccccc2)c2ccccc2)c2ccccc12 | 856
OC(CNCc1ccccc1Oc1ccccc1)c1cccc(C(F)(F)F)c1 (stereo not drawn) | 713
CNC(=O)c1cnc(Nc2ccc(N3CCOCC3)cc2)nc1Nc1cccc(OC)c1 | 759
CCCC(C)NC[C@@H](O)[C@H](Cc1ccccc1)NC(=O)c1cc(C2CCCC2)cc(N2CCCCS2(=O)=O)c1 (stereo partly drawn) | 147
Cc1cc(N2CCCC2=O)ccc1-c1ccc(C(=O)N2CCC(Oc3cccc(Cl)c3)CC2)cc1 | 427
O=C(Nc1ccc2c(c1)CCNCC2)c1ccc(-c2ccc(Cl)cc2)cc1 | 814
COc1cc2nc(-c3ccccc3)nc(N3CCN(C(=O)c4ccco4)CC3)c2cc1OC | 1410
CN(CCCNCc1ccc2ccccc2c1)CCCNCc1ccc2ccccc2c1 | 391
S=C(Nc1ccccc1Cl)NC1CCC(CN2CCC(c3c[nH]c4ccccc34)CC2)CC1 (stereo not drawn) | 1050
COc1ccc(C(=O)Nc2cc(Cl)c3c(c2)C2CCCN2CC3)cc1C(F)(F)F (stereo not drawn) | 753
NOCCCCOc1ccccc1 | 177
Cc1ccc(Oc2c(-c3ccccc3CN3CCCC3CN(C)C)cnn(C)c2=O)cn1 (stereo not drawn) | 1160
CC(O)C1CCCCN1C(=O)c1cccc(-c2ccc(-c3nc4cc(F)ccc4[nH]3)cc2)c1 (stereo not drawn) | 742
O=C(/C=C/c1ccc(Cl)c(Cl)c1)NCCCCCN1CCC(NC(=O)c2ccc(F)cc2)CC1 | 706
CC(C)CCCC(C)(C)NC[C@@H](O)[C@H](Cc1ccccc1)NC(=O)c1cccc(CCC2CC2)c1 | 796
Cc1csc2nc(-c3ccccn3)nc(Nc3ccncn3)c12 | 786
Cc1nc(C)c(CC(=O)Nc2cccc(-c3cccc(-c4nc5cc(C(F)(F)F)ccc5[nH]4)c3)c2)s1 | 827
COc1ccc(-c2csc3nc(C)nc(Cl)c23)cc1OC | 357
